Patent US20240425502A1, “BICYCLIC HETEROAROMATIC COMPOUNDS AND THEIR USE AS PEST CONTROL AGENTS” (PI INDUSTRIES LTD., priority 2021, published 2024)

Experiments:
Type in all cases: in vivo
Bemisia tabaci = Bemisia tabaci leaf dip test (brinjal leaves, whitefly adults); details: foliar, 72 h after release, dead and moribund combined, compared to untreated control, read-out: percent mortality
How it was run: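 Brinjal leaves dipped 10 s in compound diluted in 0.01% Triton-X, dried, then exposed to freshly emerged whitefly adults at 25 °C and 70% RH. Dead plus moribund adults counted after 72 h; percent mortality calculated relative to untreated control.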

Myzus persicae = Myzus persicae leaf dip test (capsicum leaves, third instar nymphs); details: foliar, 72 h after release, dead and moribund combined, compared to untreated control, read-out: percent mortality
Nilaparvata lugens = Nilaparvata lugens seedling dip test (paddy seedlings, third instar nymphs); details: 72 h after release, dead and moribund combined, compared to untreated control, read-out: percent mortality

Measured: mortality at 300 ppm

O=c1nc2n(Cc3cnc(Cl)nc3)cccc-2c(=O)n1-c1ccc(F)cc1 [Compound 117, 8-((2-chloropyrimidin-5-yl)methyl)-3-(4-fluorophenyl)pyrido[2,3-d]pyrimidine-2,4(3H,8H)-dione]
≥ 70%: all assays above

O=c1nc2n(Cc3cnc(Cl)s3)cccc-2c(=O)n1-c1cccc(C(F)(F)F)c1 [Compound 88, 8-((2-chlorothiazol-5-yl)methyl)-3-(3-(trifluoromethyl)phenyl)pyrido[2,3-d]pyrimidine-2,4(3H,8H)-dione]
≥ 70%: all assays above

O=c1nc2n(Cc3cnc(Cl)nc3)cccc-2c(=O)n1-c1cccc(Cl)c1 [Compound 96, 3-(3-chlorophenyl)-8-((2-chloropyrimidin-5-yl)methyl)pyrido[2,3-d]pyrimidine-2,4(3H,8H)-dione]
≥ 70%: all assays above

O=c1nc2n(Cc3cnc(Cl)s3)cccc-2c(=O)n1-c1cccc(OC(F)(F)F)c1 [Compound 150, 8-((2-chlorothiazol-5-yl)methyl)-3-(3-(trifluoromethoxy)phenyl)pyrido[2,3-d]pyrimidine-2,4(3H,8H)-dione]
≥ 70%: all assays above

O=c1nc2n(Cc3cnc(Cl)nc3)cccc-2c(=O)n1-c1ccc(F)cc1Cl [Compound 225, 3-(2-chloro-4-fluorophenyl)-8-((2-chloropyrimidin-5-yl)methyl)pyrido[2,3-d]pyrimidine-2,4(3H,8H)-dione]
≥ 70%: all assays above

O=c1nc2n(Cc3cnc(Cl)nc3)cccc-2c(=O)n1-c1cc(Cl)cc(Cl)c1 [Compound 201, 8-((2-chloropyrimidin-5-yl)methyl)-3-(3,5-dichlorophenyl)pyrido[2,3-d]pyrimidine-2,4(3H,8H)-dione]
≥ 70%: all assays above

O=c1nc2n(Cc3cnc(Cl)s3)cccc-2c(=O)n1-c1ccc(F)c(C(F)(F)F)c1 [Compound 242, 8-((2-chlorothiazol-5-yl)methyl)-3-(4-fluoro-3-(trifluoromethyl)phenyl)pyrido[2,3-d]pyrimidine-2,4(3H,8H)-dione]
≥ 70%: all assays above

O=c1nc2n(Cc3ccc(Cl)nc3)cccc-2c(=O)n1-c1cccc(SC(F)(F)F)c1 [Compound 246, 8-((6-chloropyridin-3-yl)methyl)-3-(3-((trifluoromethyl)thio)phenyl)pyrido[2,3-d]pyrimidine-2,4(3H,8H)-dione]
≥ 70%: all assays above

O=c1nc2n(Cc3ccc(Cl)nc3)cccc-2c(=O)n1-c1ccc(OCC(F)(F)F)cc1 [Compound 223, 8-((6-chloropyridin-3-yl)methyl)-3-(4-(2,2,2-trifluoroethoxy)phenyl)pyrido[2,3-d]pyrimidine-2,4(3H,8H)-dione]
≥ 70%: all assays above
